Source: ChEMBL document CHEMBL5291721, “A preclinical secondary pharmacology resource illuminates target-adverse drug reaction associations of marketed drugs” (Nat Commun, 2023)

How the values were obtained:
[1] = target: T1, Progesterone receptor (Homo sapiens, UniProt P06401); format: functional
T1 sequence (P06401 whole entry): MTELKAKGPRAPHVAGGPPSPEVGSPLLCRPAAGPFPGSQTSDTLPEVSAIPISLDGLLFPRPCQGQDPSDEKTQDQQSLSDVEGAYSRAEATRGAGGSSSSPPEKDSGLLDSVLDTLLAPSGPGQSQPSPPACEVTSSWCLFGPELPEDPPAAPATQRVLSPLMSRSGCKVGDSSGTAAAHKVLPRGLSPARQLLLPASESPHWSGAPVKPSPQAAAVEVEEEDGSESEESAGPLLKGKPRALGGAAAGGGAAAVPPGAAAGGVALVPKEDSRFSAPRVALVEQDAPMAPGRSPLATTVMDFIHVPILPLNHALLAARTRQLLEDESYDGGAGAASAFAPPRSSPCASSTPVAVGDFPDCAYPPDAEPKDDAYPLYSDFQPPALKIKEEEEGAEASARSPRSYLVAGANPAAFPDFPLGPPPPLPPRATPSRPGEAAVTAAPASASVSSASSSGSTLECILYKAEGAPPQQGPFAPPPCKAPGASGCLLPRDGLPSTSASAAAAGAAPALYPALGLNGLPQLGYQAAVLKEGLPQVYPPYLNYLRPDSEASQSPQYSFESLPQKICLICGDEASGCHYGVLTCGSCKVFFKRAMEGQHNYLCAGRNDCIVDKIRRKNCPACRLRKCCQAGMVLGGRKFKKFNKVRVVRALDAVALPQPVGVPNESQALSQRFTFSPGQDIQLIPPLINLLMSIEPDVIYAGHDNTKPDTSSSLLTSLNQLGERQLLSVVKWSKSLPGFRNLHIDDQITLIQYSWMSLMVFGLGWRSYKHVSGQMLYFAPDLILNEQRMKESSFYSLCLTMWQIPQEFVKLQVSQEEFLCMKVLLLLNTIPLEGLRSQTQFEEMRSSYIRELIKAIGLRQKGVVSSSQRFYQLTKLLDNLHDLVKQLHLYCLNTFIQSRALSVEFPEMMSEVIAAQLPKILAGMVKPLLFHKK

[2] = target: Melanocortin receptor 3 (Homo sapiens, UniProt P41968)
Chain of Melanocortin receptor 3 (P41968 whole entry): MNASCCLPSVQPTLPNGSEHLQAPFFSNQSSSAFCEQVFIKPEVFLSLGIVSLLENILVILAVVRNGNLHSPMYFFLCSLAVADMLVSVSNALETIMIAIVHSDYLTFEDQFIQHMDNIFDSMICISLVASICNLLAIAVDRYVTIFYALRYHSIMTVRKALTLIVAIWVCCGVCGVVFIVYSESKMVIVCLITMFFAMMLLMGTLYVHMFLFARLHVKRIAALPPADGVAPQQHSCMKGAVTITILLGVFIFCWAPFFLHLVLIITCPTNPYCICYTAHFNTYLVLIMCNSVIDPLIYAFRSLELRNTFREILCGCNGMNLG

[3] = target: T2, Alpha-2C adrenergic receptor (Homo sapiens, UniProt P18825); format: functional
T2 sequence (P18825 whole entry): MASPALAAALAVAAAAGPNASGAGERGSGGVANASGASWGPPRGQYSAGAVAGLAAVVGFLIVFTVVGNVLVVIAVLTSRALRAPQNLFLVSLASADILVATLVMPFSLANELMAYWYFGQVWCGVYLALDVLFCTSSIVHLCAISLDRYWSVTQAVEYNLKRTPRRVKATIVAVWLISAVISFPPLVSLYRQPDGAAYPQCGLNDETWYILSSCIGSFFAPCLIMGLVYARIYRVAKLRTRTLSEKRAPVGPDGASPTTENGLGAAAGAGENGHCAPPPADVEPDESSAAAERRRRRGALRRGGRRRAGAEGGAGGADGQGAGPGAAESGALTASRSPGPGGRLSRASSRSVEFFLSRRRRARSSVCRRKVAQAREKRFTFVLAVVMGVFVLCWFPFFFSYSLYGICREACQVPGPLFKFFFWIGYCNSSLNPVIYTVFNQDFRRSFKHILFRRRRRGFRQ

[4] = target: Gamma-aminobutyric acid receptor subunit alpha-1 (Rattus norvegicus, UniProt P62813); format: functional
Chain of Gamma-aminobutyric acid receptor subunit alpha-1 (P62813 whole entry): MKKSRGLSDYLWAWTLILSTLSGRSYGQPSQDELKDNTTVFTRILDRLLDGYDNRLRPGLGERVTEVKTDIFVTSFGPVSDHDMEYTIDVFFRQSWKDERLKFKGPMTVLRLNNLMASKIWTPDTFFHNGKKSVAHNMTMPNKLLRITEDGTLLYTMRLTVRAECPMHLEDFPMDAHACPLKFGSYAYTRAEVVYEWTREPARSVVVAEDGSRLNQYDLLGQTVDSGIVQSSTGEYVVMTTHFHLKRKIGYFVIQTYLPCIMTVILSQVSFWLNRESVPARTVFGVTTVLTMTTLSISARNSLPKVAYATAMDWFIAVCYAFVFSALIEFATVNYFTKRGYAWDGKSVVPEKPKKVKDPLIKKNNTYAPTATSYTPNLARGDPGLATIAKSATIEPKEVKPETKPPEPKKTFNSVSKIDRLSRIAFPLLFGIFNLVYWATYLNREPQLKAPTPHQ

[5] = target: 3',5'-cyclic-AMP phosphodiesterase 4D (Homo sapiens, UniProt Q08499); format: functional
Chain of 3',5'-cyclic-AMP phosphodiesterase 4D (Q08499 whole entry): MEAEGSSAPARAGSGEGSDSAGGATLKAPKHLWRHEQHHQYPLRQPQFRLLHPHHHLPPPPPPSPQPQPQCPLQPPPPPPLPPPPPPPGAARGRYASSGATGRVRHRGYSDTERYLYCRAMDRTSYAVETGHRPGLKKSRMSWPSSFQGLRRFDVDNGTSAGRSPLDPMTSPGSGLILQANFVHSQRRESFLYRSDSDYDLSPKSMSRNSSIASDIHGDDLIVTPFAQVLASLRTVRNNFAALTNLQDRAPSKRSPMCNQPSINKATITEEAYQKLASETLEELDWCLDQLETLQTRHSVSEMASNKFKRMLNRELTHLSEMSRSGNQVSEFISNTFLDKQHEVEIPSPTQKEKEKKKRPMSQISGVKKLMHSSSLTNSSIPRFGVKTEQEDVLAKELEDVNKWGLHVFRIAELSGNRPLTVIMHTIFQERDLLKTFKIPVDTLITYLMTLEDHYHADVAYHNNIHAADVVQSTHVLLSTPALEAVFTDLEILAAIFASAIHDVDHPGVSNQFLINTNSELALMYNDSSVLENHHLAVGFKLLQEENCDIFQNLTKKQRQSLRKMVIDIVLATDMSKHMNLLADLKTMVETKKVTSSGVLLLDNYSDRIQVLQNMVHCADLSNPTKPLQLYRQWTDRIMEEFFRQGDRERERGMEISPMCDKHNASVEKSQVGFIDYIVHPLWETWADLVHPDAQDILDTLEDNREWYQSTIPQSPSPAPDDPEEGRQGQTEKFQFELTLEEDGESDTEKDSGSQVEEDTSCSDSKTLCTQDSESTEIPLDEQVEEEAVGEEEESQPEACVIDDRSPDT

[6] = target: T3, Muscarinic acetylcholine receptor M2 (Homo sapiens, UniProt P08172); format: functional, cell-based
T3 sequence (P08172 whole entry): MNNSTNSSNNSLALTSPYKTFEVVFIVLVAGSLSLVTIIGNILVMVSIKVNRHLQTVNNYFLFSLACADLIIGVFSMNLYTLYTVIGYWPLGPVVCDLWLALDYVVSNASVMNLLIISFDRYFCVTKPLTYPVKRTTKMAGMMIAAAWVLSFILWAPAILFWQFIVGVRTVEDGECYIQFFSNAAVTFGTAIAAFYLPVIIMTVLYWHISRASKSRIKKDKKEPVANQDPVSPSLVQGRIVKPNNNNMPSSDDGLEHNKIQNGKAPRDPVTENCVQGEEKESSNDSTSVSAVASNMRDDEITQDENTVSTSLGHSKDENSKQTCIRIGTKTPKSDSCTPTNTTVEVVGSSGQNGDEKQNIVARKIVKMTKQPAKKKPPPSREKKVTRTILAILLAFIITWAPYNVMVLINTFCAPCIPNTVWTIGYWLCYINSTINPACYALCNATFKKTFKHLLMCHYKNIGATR

[7] = target: cGMP-inhibited 3',5'-cyclic phosphodiesterase 3A (Homo sapiens, UniProt Q14432); format: functional
Chain of cGMP-inhibited 3',5'-cyclic phosphodiesterase 3A (Q14432 whole entry): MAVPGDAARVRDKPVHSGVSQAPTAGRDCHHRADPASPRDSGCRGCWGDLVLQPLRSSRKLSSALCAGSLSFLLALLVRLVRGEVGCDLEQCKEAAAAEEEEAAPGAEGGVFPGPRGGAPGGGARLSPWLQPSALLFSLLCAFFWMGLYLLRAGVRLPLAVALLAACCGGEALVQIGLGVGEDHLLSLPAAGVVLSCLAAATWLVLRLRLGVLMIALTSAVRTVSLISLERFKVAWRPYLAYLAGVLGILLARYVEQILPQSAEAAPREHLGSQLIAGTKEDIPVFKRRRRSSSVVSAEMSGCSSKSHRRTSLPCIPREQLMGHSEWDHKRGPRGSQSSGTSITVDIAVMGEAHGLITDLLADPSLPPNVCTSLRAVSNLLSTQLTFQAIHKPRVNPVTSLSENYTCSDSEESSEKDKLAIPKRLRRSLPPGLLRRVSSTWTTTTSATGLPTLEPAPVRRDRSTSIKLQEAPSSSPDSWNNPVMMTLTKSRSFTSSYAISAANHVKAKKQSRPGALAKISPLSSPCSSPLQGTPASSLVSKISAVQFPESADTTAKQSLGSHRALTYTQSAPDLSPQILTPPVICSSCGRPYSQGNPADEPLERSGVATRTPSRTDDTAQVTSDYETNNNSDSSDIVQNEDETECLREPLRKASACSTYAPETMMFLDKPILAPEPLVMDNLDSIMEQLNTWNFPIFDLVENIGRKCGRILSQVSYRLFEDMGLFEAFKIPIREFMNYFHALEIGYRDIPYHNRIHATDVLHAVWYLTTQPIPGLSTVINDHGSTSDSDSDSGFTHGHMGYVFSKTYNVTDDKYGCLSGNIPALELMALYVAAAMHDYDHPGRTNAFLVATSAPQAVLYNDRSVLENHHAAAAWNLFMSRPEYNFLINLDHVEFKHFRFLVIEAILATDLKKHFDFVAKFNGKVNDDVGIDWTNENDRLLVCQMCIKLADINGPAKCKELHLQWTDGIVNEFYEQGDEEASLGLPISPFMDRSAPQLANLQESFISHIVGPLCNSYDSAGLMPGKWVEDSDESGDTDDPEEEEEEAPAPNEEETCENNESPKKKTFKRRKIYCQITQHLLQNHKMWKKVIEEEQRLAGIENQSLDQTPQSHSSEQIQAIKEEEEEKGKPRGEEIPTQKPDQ

[8] = target: T4, 5-hydroxytryptamine receptor 2C (Homo sapiens, UniProt P28335)
T4 sequence (P28335 whole entry): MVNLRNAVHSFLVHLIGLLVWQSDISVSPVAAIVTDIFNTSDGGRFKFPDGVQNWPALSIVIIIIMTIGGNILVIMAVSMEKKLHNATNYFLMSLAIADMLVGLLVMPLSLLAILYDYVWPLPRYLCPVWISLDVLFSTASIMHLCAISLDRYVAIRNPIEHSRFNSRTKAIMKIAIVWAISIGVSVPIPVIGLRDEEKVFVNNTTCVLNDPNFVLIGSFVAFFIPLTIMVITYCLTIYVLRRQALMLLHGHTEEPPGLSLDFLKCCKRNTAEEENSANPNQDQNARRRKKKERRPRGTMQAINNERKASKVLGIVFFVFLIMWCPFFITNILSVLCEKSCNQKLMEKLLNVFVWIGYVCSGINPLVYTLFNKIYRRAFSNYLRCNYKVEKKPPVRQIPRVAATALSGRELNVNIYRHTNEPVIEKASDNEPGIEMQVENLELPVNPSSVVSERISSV
Note: assay procedure not described here.

Compound	AC50 [1] [µM]	AC50 [2] [µM]	AC50 [3] [µM]	AC50 [4] [µM]	AC50 [5] [µM]	AC50 [6] [µM]	AC50 [7] [µM]	AC50 [8] [µM]
CO/N=C(\C(=O)N[C@@H]1C(=O)N2C(C(=O)O)=C(CSc3nc(=O)c(=O)[nH]n3C)CS[C@H]12)c1csc(N)n1 [CEFTRIAXONE]	23	> 30	> 30	> 30	> 30	> 30	> 30	> 30
NC(=O)NC(=O)Cc1ccccc1 [PHENACEMIDE]	> 10	> 10	> 10	> 10	> 30	> 10	> 30	> 30
CC(C)(C)NCC(O)c1ccccc1Cl (stereo not given) [TULOBUTEROL]	> 30	> 30	> 30	> 30	> 30	> 30	> 30	> 30
COc1ccc2cc(CCC(C)=O)ccc2c1 [NABUMETONE]	> 10	> 10	> 30	> 10	> 30	> 10	> 30	> 30
CCOC(=O)[C@@H](N)Cc1ccc(-c2cc(O[C@H](c3ccc(Cl)cc3-n3ccc(C)n3)C(F)(F)F)nc(N)n2)cc1 [TELOTRISTAT ETHYL]	> 30	12	22	> 30	5	> 30	> 30	> 30
O=C(O)c1ccc(NC(=O)[C@H](Cc2ccc(O)cc2)NC(=O)c2ccccc2)cc1 [BENTIROMIDE]	> 10	> 10	> 10	> 10	> 30	> 10	> 30	> 30
O=C(c1cc(Cc2n[nH]c(=O)c3ccccc23)ccc1F)N1CCN(C(=O)C2CC2)CC1 [OLAPARIB]	> 30	> 30	> 10	> 10	> 30	> 10	24	> 30
COc1cc2[nH]c(C)c(CCN3CCN(c4ccccc4)CC3)c2cc1OC [OXYPERTINE]	> 30	> 30	1.4	> 30	9.8	> 30	> 30	0.49
CC(CN(C)C)C(C)(O)Cc1ccc(Cl)cc1 (stereo not given) [CLOBUTINOL]	> 30	> 30	> 10	> 10	> 30	> 10	> 30	> 30
COc1cc(C)c(/C=C/C(C)=C/C=C/C(C)=C/C(=O)O)c(C)c1C [ACITRETIN]	> 30	> 10	> 10	> 10	> 30	> 10	> 10	> 30
CCC(NC(C)C)C(O)c1ccc(O)c2[nH]c(=O)ccc12 (stereo not given) [PROCATEROL]	> 30	> 30	> 30	> 30	> 30	> 30	> 30	> 30
COc1ccc(C2C(=O)c3ccccc3C2=O)cc1 [ANISINDIONE]	> 30	> 10	> 10	> 10	> 30	> 10	> 30	> 30
Cn1c(=O)c2c(ncn2CCOC(=O)C(C)(C)Oc2ccc(Cl)cc2)n(C)c1=O [THEOFIBRATE]	> 30	> 30	> 30	> 30	> 30	> 30	> 30	> 30
C=CC[N+]1([C@H]2C[C@H]3[C@@H]4CC[C@H]5C[C@H](O)[C@@H](N6CCOCC6)C[C@]5(C)[C@H]4CC[C@]3(C)[C@H]2OC(C)=O)CCCC1 [ROCURONIUM]	> 30	> 30	> 30	> 30	> 30	> 30	> 30	> 30
CCN1CC(CCN2CCOCC2)C(c2ccccc2)(c2ccccc2)C1=O (stereo not given) [DOXAPRAM]	> 30	> 30	> 30	> 30	> 30	> 30	> 30	0.071
O=C(NCCO[N+](=O)[O-])c1cccnc1 [NICORANDIL]	> 30	> 30	> 30	> 30	> 30	> 30	> 30	> 30
CC(C)N(CCCCOCC(=O)O)c1cnc(-c2ccccc2)c(-c2ccccc2)n1	> 30	> 30	> 30	> 30	14.3	> 30	> 30	> 30
C[N+]12CCC(CC1)C(OC(=O)C(O)(c1ccccc1)c1ccccc1)C2 (stereo not given)	> 30	> 30	> 30	> 30	> 30	> 30	> 30	> 30
C=CCN1CCc2nc(N)sc2CC1 [TALIPEXOLE]	> 30	> 30	0.71	> 30	> 30	> 30	> 30	> 30
CCC1(CCC(C)C)C(=O)NC(=O)NC1=O [AMOBARBITAL]	> 10	> 10	> 10	> 10	> 30	> 10	> 30	> 30
